According to patent US7396837B2, “Antitumoral analogs of lamellarins” (Pharma Mar, S.A.U., priority 2002, dated 2008):

Legend:
Assay type in all cases: cell-based
[1] = system: A-549; assay: SRB colorimetric cell growth inhibition assay, A-549; conditions: Homo sapiens, A549, A-549; for GI50: GI=growth inhibition, read-out: GI50 A-549; for CC50: cell killing (cytotoxic effect), read-out: LC50 A-549; for IC (TGI): total growth inhibition (cytostatic effect), read-out: TGI A-549
Text: (§1) The finality of these assays is to interrupt the growth of an “in vitro” tumor cell culture by means a continued exhibition of the cells to the sample to be testing.
(§2) A colorimetric type of assay, using sulforhodamine B (SRB) reaction has been adapted for a quantitative measurement of cell growth and viability (following the technique described by P. A. Skehan, et al., J. Natl. Cancer Inst. 1990, 82, 1107-1112).
(§3) This form of assay employs 96 well cell culture microplates of 9 mm diameter (T. Mosmann et al., J. of Immunological Methods 1983, 65, 55-63; G. T. Faircloth et al., J. of Tissue and Culture Methods 1988, 11, 201-205).
(§4) Most of the cell lines are obtained from American Type Culture Collection (ATCC) derived from different human cancer types.
(§5) The values for mean +/− SD of data from triplicate wells are calculated. Some parameters for cellular responses can be calculated: GI=growth inhibition, TGI=total growth inhibition (cytostatic effect) and LC=cell killing (cytotoxic effect).

[2] = system: LoVo; assay: SRB colorimetric cell growth inhibition assay, LoVo; conditions: Homo sapiens, LoVo; for GI50: GI=growth inhibition, read-out: GI50 LOVO; for CC50: cell killing (cytotoxic effect), read-out: LC50 LOVO; for IC (TGI): total growth inhibition (cytostatic effect), read-out: TGI LOVO
Text: as §1, §2, §3, §4, §5

[3] = system: HT-29; assay: SRB colorimetric cell growth inhibition assay, HT-29; conditions: Homo sapiens, HT-29, HT-29; for GI50: GI=growth inhibition, read-out: GI50 HT-29; for CC50: cell killing (cytotoxic effect), read-out: LC50 HT-29; for IC (TGI): total growth inhibition (cytostatic effect), read-out: TGI HT-29
Text: as §1, §2, §3, §4, §5

[4] = system: K-562; assay: SRB colorimetric cell growth inhibition assay, K-562; conditions: Homo sapiens, K562, K-562; for GI50: GI=growth inhibition, read-out: GI50 K-562; for CC50: cell killing (cytotoxic effect), read-out: LC50 K-562; for IC (TGI): total growth inhibition (cytostatic effect), read-out: TGI K-562
Text: as §1, §2, §3, §4, §5

[5] = system: IGROV-ET; assay: SRB colorimetric cell growth inhibition assay, IGROV-ET (ET-743 resistant); conditions: Homo sapiens, IGROV-ET; for GI50: GI=growth inhibition, read-out: GI50 IGROV-ET; for CC50: cell killing (cytotoxic effect), read-out: LC50 IGROV-ET; for IC (TGI): total growth inhibition (cytostatic effect), read-out: TGI IGROV-ET
Text: as §1, §2, §3, §4, §5

[6] = system: HeLa-APL; assay: SRB colorimetric cell growth inhibition assay, HeLa-APL (aplidine resistant); conditions: Homo sapiens, HELA-APL; for GI50: GI=growth inhibition, read-out: GI50 HELA-APL; for CC50: cell killing (cytotoxic effect), read-out: LC50 HELA-APL; for IC (TGI): total growth inhibition (cytostatic effect), read-out: TGI HELA-APL
Text: as §1, §2, §3, §4, §5

[7] = system: HeLa; assay: SRB colorimetric cell growth inhibition assay, HeLa; conditions: Homo sapiens, HeLa; for GI50: GI=growth inhibition, read-out: GI50 HELA; for CC50: cell killing (cytotoxic effect), read-out: LC50 HELA; for IC (TGI): total growth inhibition (cytostatic effect), read-out: TGI HELA
Text: as §1, §2, §3, §4, §5

[8] = system: DU-145; assay: SRB colorimetric cell growth inhibition assay, DU-145; conditions: Homo sapiens, DU-145, DU-145; for GI50: GI=growth inhibition, read-out: GI50 DU-145; for CC50: cell killing (cytotoxic effect), read-out: LC50 DU-145; for IC (TGI): total growth inhibition (cytostatic effect), read-out: TGI DU-145
Text: as §1, §2, §3, §4, §5

[9] = system: IGROV; assay: SRB colorimetric cell growth inhibition assay, IGROV; conditions: Homo sapiens, IGROV; for GI50: GI=growth inhibition, read-out: GI50 IGROV; for CC50: cell killing (cytotoxic effect), read-out: LC50 IGROV; for IC (TGI): total growth inhibition (cytostatic effect), read-out: TGI IGROV
Text: as §1, §2, §3, §4, §5

[10] = system: LNCaP; assay: SRB colorimetric cell growth inhibition assay, LNCaP; conditions: Homo sapiens, LNCaP, LN-caP; for GI50: GI=growth inhibition, read-out: GI50 LN-caP; for CC50: cell killing (cytotoxic effect), read-out: LC50 LN-caP; for IC (TGI): total growth inhibition (cytostatic effect), read-out: TGI LN-caP
Text: as §1, §2, §3, §4, §5

[11] = system: LoVo-Dox; assay: SRB colorimetric cell growth inhibition assay, LoVo-Dox (MDR); conditions: Homo sapiens, LOVO-DOX; for GI50: GI=growth inhibition, read-out: GI50 LOVO-DOX; for CC50: cell killing (cytotoxic effect), read-out: LC50 LOVO-DOX; for IC (TGI): total growth inhibition (cytostatic effect), read-out: TGI LOVO-DOX
Text: as §1, §2, §3, §4, §5

[12] = system: SK-BR-3; assay: SRB colorimetric cell growth inhibition assay, SK-BR-3; conditions: Homo sapiens, SK-BR-3, SK-BR-3; for GI50: GI=growth inhibition, read-out: GI50 SK-BR-3; for CC50: cell killing (cytotoxic effect), read-out: LC50 SK-BR-3; for IC (TGI): total growth inhibition (cytostatic effect), read-out: TGI SK-BR-3
Text: as §1, §2, §3, §4, §5

[13] = system: PANC-1; assay: SRB colorimetric cell growth inhibition assay, PANC-1; conditions: Homo sapiens, PANC-1, PANC-1; for GI50: GI=growth inhibition, read-out: GI50 PANC-1; for CC50: cell killing (cytotoxic effect), read-out: LC50 PANC-1; for IC (TGI): total growth inhibition (cytostatic effect), read-out: TGI PANC-1
Text: as §1, §2, §3, §4, §5

[14] = system: SK-MEL-28; assay: SRB colorimetric cell growth inhibition assay, SK-MEL-28; conditions: Homo sapiens, SK-MEL-28, MEL-28; for GI50: GI=growth inhibition, read-out: GI50 MEL-28; for CC50: cell killing (cytotoxic effect), read-out: LC50 MEL-28; for IC (TGI): total growth inhibition (cytostatic effect), read-out: TGI MEL-28
Text: as §1, §2, §3, §4, §5

Row | Structure (SMILES) | GI50 [1] [µM] | CC50 [1] [µM] | IC (TGI) [1] [µM] | GI50 [2] [µM] | CC50 [2] [µM] | IC (TGI) [2] [µM] | GI50 [3] [µM] | CC50 [3] [µM] | IC (TGI) [3] [µM] | GI50 [5] [µM] | CC50 [5] [µM] | IC (TGI) [5] [µM] | GI50 [6] [µM] | CC50 [6] [µM] | IC (TGI) [6] [µM] | GI50 [7] [µM] | CC50 [7] [µM] | IC (TGI) [7] [µM] | GI50 [8] [µM] | CC50 [8] [µM] | other results
1 | COc1cc(-c2c3n(c4c(=O)[nH]c5cc(O)c(OC)cc5c24)CCc2cc(O)c(OC)cc2-3)ccc1O [Compound 4] | 0.543 | 10 | 1.21 | 0.468 | 4.36 | 1.08 | 2.5 | 14.6 | 6.03 | 0.599 | 13.1 | 1.64 | 0.238 | 1.95 | 0.681 | 0.338 | 1.39 | 0.685 | 0.218 | 2.14 | GI50 [4]: 0.396 µM; CC50 [4]: 4.44 µM; IC (TGI) [4]: 0.937 µM; IC (TGI) [8]: 0.667 µM; GI50 [9]: 0.402 µM; CC50 [9]: 11.3 µM; IC (TGI) [9]: 2 µM; GI50 [10]: 0.332 µM; CC50 [10]: 1.85 µM; IC (TGI) [10]: 0.785 µM; GI50 [11]: 2 µM; CC50 [11]: 17.8 µM; IC (TGI) [11]: 5.95 µM; GI50 [12]: 0.338 µM; CC50 [12]: 1.47 µM; IC (TGI) [12]: 0.703 µM; GI50 [13]: 0.48 µM; CC50 [13]: 5.99 µM; IC (TGI) [13]: 1.34 µM
2 | CC[C@H](C)[C@H](N)C(=O)Oc1ccc(-c2c3c4cc(OC)c(OC(=O)[C@@H](N)[C@@H](C)CC)cc4oc(=O)c3n3ccc4cc(OC(=O)[C@@H](N)[C@@H](C)CC)c(OC)cc4c23)cc1OC [Compound 209] | 0.0428 | 0.713 | 0.195 | 0.119 | 0.527 | 0.251 | 3.38 | 10.5 | 9.99 | 0.0317 | 0.345 | 0.0701 | 0.0827 | 0.517 | 0.221 | 0.0662 | 1.01 | 0.269 | 0.00429 | 0.0404 | IC (TGI) [8]: 0.0119 µM; GI50 [9]: 0.0337 µM; CC50 [9]: 0.477 µM; IC (TGI) [9]: 0.124 µM; GI50 [10]: 0.0158 µM; CC50 [10]: 0.233 µM; IC (TGI) [10]: 0.056 µM; GI50 [11]: 0.137 µM; CC50 [11]: 2.6 µM; IC (TGI) [11]: 0.488 µM; GI50 [12]: 0.0478 µM; CC50 [12]: 0.101 µM; IC (TGI) [12]: 0.0695 µM; GI50 [14]: 0.0328 µM; CC50 [14]: 0.48 µM; IC (TGI) [14]: 0.0839 µM; GI50 [13]: 0.0674 µM; CC50 [13]: 1.03 µM; IC (TGI) [13]: 0.282 µM
3 | COc1cc2c(cc1O)oc(=O)c1c2c(-c2ccc(OC)c(OC)c2)c2c3cc(OC)c(O)cc3ccn21 [Compound 233] | 0.312 | 19.5 | 2.06 | 0.545 | 19.5 | 1.31 | 19.5 | 19.5 | 19.5 | 0.107 | 19.5 | 0.721 | 0.417 | 14.3 | 3.15 | 0.191 | 16 | 3.82 | 0.0783 | 19.5 | GI50 [4]: 0.0958 µM; CC50 [4]: 8.61 µM; IC (TGI) [4]: 1.09 µM; IC (TGI) [8]: 0.18 µM; GI50 [9]: 0.0499 µM; CC50 [9]: 19.5 µM; IC (TGI) [9]: 0.142 µM; GI50 [10]: 0.126 µM; CC50 [10]: 3.72 µM; IC (TGI) [10]: 0.557 µM; GI50 [11]: 1.05 µM; CC50 [11]: 19.5 µM; IC (TGI) [11]: 15.4 µM; GI50 [14]: 0.169 µM; CC50 [14]: 19.5 µM; IC (TGI) [14]: 4.75 µM; GI50 [13]: 0.341 µM; CC50 [13]: 19.5 µM; IC (TGI) [13]: 19.5 µM
